Test results reported in patent US12685735B2 (Foghorn Therapeutics Inc., priority 2020, dated 2026).
Where two headings read alike, the source gives them in different places.

What was measured:
[1] = biological target: BRM (Homo sapiens, UniProt P51531); experiment: ATPase catalytic activity assay of BRM (ADP-Glo); assay type: biochemical; conditions: for IC50: read-out: BRM IC50 (μM)*
Procedure: (§1) The ATPase catalytic activity of BRM or BRG-1 was measured by the in vitro biochemical assay using ADP-Glo™ (Promega, V9102). The ADP-Glo™ kinase assay is performed in two steps once the reaction is complete. The first step is to deplete any unconsumed ATP in the reaction. The second step is to convert the reaction product ADP to ATP, which will be utilized by the luciferase to generate luminesce and be detected by a luminescence reader, such as Envision.
(§2) Then following addition of 5 μL of ADP-Glo™ Reagent provided in the kit, the reaction incubates at room temperature for 40 minutes. Then 10 μL of Kinase Detection Reagent provided in the kit is added to convert ADP to ATP, and the reaction incubates at room temperature for 60 minutes. Finally, luminescence measurement is collected with a plate-reading luminometer, such as Envision.
as §1, with “The” for “The ATPase catalytic activity of BRM or BRG-1 was measured by the in vitro biochemical assay using ADP-Glo™ (Promega, V9102). The”

[2] = biological target: BRG-1 (Homo sapiens, UniProt P51532); experiment: ATPase catalytic activity assay of BRG-1 (ADP-Glo); assay type: biochemical; conditions: ATPase catalytic activity, ADP-Glo; for IC50: read-out: BRG1 IC50 (μM)*; for Emax: read-out: BRG1 Max % Inhibition
Sequence of BRG-1 (P51532 whole entry): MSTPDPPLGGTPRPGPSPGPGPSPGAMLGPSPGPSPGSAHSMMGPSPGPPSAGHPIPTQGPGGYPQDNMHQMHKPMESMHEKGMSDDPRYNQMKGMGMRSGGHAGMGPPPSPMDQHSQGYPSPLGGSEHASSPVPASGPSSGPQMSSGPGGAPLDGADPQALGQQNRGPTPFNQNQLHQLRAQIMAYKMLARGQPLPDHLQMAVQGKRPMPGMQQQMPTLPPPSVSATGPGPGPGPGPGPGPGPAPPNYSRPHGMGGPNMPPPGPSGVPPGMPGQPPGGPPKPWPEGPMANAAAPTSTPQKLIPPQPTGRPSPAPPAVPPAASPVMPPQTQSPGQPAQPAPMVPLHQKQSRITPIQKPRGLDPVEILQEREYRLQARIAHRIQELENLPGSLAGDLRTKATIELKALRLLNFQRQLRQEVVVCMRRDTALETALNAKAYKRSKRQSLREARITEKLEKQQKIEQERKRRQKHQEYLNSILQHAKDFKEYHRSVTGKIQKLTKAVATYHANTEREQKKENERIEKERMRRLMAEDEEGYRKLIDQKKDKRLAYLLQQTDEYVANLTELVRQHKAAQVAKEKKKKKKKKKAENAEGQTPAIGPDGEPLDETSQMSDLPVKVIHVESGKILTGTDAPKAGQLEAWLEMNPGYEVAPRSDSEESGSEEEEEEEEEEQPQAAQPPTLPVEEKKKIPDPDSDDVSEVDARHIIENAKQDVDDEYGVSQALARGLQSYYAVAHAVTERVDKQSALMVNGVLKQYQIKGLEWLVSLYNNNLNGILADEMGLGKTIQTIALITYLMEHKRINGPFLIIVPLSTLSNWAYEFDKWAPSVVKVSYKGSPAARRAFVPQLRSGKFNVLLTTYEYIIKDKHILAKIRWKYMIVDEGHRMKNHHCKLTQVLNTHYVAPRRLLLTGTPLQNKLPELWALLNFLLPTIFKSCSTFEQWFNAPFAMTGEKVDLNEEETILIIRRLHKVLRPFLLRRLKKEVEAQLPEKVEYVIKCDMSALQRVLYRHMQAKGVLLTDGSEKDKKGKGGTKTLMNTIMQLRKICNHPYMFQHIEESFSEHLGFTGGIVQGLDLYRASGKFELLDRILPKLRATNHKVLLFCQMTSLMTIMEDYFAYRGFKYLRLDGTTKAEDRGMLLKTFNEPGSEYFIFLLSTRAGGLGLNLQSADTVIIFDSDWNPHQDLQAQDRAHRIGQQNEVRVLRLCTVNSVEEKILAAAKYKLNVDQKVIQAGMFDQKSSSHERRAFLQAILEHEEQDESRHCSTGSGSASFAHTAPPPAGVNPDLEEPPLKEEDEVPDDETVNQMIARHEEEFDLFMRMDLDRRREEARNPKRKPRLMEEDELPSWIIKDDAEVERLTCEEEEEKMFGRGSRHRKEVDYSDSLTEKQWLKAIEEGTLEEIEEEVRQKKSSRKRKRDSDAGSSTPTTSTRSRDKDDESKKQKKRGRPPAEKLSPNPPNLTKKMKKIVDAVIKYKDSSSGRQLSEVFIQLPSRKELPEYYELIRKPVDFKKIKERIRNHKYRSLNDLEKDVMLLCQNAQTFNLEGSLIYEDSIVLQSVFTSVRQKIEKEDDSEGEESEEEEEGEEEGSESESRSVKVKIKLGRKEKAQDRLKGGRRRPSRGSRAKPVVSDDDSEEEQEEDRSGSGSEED
Procedure: as §1, §2
as §1, with “The” for “The ATPase catalytic activity of BRM or BRG-1 was measured by the in vitro biochemical assay using ADP-Glo™ (Promega, V9102). The”

Sequence of BRM (P51531 whole entry): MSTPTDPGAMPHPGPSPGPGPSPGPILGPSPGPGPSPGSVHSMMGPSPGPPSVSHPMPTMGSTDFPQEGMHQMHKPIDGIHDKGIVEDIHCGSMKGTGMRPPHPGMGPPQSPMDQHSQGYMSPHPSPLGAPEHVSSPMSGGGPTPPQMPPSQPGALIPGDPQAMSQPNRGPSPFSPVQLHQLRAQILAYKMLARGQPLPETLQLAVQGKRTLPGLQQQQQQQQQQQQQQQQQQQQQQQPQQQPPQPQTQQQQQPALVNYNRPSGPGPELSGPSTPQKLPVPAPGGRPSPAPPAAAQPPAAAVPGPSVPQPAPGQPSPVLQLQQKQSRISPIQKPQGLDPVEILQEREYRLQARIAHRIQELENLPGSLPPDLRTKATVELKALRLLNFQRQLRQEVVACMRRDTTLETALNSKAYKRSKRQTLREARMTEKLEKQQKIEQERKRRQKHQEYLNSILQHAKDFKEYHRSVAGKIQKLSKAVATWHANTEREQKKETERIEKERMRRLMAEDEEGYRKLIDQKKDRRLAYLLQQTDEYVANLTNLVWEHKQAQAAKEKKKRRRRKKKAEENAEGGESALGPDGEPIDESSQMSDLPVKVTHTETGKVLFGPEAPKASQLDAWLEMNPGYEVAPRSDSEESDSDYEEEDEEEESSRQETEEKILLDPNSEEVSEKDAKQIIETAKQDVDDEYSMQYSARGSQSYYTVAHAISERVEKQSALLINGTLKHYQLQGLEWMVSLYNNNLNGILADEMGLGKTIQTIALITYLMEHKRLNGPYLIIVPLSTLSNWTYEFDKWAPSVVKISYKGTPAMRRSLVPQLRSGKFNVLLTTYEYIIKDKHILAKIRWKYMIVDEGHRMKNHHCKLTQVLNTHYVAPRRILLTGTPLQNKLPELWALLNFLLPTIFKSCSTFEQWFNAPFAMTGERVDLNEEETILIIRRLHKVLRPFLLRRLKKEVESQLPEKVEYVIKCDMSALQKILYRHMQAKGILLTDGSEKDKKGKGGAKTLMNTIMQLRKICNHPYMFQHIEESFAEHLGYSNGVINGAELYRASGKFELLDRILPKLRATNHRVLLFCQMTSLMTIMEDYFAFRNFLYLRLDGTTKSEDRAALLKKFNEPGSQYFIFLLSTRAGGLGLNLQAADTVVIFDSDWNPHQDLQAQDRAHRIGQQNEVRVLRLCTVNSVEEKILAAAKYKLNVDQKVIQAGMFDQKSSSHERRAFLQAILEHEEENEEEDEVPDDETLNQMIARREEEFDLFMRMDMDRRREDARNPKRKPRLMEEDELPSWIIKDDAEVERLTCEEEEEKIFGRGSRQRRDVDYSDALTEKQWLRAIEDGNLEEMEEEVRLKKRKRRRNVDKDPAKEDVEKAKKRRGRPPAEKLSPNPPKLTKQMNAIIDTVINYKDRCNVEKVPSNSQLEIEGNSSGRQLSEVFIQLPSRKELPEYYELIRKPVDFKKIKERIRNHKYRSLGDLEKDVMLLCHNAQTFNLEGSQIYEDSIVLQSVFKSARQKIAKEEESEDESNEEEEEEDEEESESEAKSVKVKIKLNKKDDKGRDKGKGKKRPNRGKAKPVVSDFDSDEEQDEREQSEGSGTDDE

Row | BRM Max % Inhibition [1] | IC50 [1] | IC50 [2] | Emax [2] | BRM Max % Inhibition ([1]; 30 nM BRM, 400 μM ATP) | IC50 ([1]; 30 nM BRM, 400 μM ATP) | IC50 ([2]; 30 nM BRG-1, 400 μM ATP) | Emax ([2]; 30 nM BRG-1, 400 μM ATP) | SMILES
1 | >80% | 0.1 to 1 µM | 1 to 5 µM | > 40% | – | – | – | – | Cc1cnc(O)c(-c2cccc(-c3csc(NC(=O)CNC(=O)c4ccc5c(c4)[C@](C)(CO)CC5)n3)n2)c1 [Compound 263, (R)-N-(2-((4-(2′-hydroxy-5′-methyl-[2,3′-bipyridin]-6-yl)thiazol-2-yl)amino)-2-oxoethyl)-3-(hydroxymethyl)-3-methyl-2,3-dihydro-1H-indene-5-carboxamide]
2 | >95% | 0.1 to 1 µM | 1 to 5 µM | > 80% | – | – | – | – | Cc1nccc(-c2cccc(-c3csc(NC(=O)CNC(=O)c4cccc(S(=O)(=O)C(C)C)c4)n3)n2)n1 [Compound 121]
3 | >80% | 0.1 to 1 µM | > 5 µM | > 80% | – | – | – | – | C[C@@H]1CN(c2cccc(-c3csc(NC(=O)CNC(=O)c4ccc5c(c4)[C@@](C)(CO)CN5C)n3)c2)C[C@H](C)O1 [Compound 404, (R)-N-(2-((4-(3-((cis)-2,6-dimethylmorpholino)phenyl)thiazol-2-yl)amino)-2-oxoethyl)-3-(hydroxymethyl)-1,3-dimethylindoline-5-carboxamide]
4 | >90% | 0.1 to 1 µM | 1 to 5 µM | > 90% | – | – | – | – | C[C@@H]1CN(c2cccc(-c3csc(NC(=O)CNC(=O)c4ccc5c(c4)C(C)(CO)COC5)n3)c2)C[C@H](C)O1 (stereo in doubt) [Compound 373, (S)-N-(2-((4-(3-((cis)-2,6-dimethylmorpholino)phenyl)thiazol-2-yl)amino)-2-oxoethyl)-4-(hydroxymethyl)-4-methylisochromane-6-carboxamide]
5 | >95% | < 0.1 µM | 0.1 to 1 µM | > 80% | – | – | – | – | CC(C)(CN)c1cccc(C(=O)NCC(=O)Nc2nc(-c3cccc(-c4ccnc(N)c4)c3)cs2)c1 [Compound 59, 3-(1-amino-2-methylpropan-2-yl)-N-(2-((4-(3-(2-aminopyridin-4-yl)phenyl)thiazol-2-yl)amino)-2-oxoethyl)benzamide]
6 | >90% | 0.1 to 1 µM | > 5 µM | > 50% | – | – | – | – | C[C@@H]1CN(c2cccc(-c3csc(NC(=O)CNC(=O)c4cccc(C5(CO)COC5)c4)n3)c2)C[C@H](C)O1 [Compound 168, N-(2-((4-(3-((cis)-2,6-dimethylmorpholino)phenyl)thiazol-2-yl)amino)-2-oxoethyl)-3-(3-(hydroxymethyl)oxetan-3-yl)benzamide]
7 | >60% | 1 to 5 µM | > 5 µM | < 30% | – | – | – | – | C[C@@H]1CN(c2cccc(-c3csc(NC(=O)CNC(=O)c4ccc5c(c4)[C@]4(CCC[C@H]4O)CC5)n3)c2)C[C@H](C)O1 [Compound 256, (1S,2R)-N-(2-((4-(3-((cis)-2,6-dimethylmorpholino)phenyl)thiazol-2-yl)amino)-2-oxoethyl)-2-hydroxy-2′,3′-dihydrospiro[cyclopentane-1,1′-indene]-6′-carboxamide]
8 | >90% | 0.1 to 1 µM | 0.1 to 1 µM | > 90% | – | – | – | – | COc1cccc(-c2csc(NC(=O)CNC(=O)c3ccc4c(c3)C(C)(F)CCCO4)n2)c1 (stereo in doubt) [Compound 324, (S)-5-fluoro-N-(2-((4-(3-methoxyphenyl)thiazol-2-yl)amino)-2-oxoethyl)-5-methyl-2,3,4,5-tetrahydrobenzo[b]oxepine-7-carboxamide]
9 | – | – | – | – | >95% | 0.1 to 1 µM | 1 to 5 µM | > 95% | C[C@@H]1CN(c2cccc(-c3csc(NC(=O)CNC(=O)c4ccc5c(c4)[C@](C)(O)COC5)n3)c2)C[C@H](C)O1 [Compound 438, (S)-N-(2-((4-(3-((cis)-2,6-dimethylmorpholino)phenyl)thiazol-2-yl)amino)-2-oxoethyl)-4-hydroxy-4-methylisochromane-6-carboxamide]
10 | – | – | – | – | >95% | < 0.1 µM | 0.1 to 1 µM | > 95% | C[C@@H]1CN(c2cccc(-c3csc(NC(=O)CNC(=O)c4cccc(C5(C#N)COC5)c4)n3)c2)C[C@H](C)O1 [Compound 418, 3-(3-cyanooxetan-3-yl)-N-(2-((4-(3-((cis)-2,6-dimethylmorpholino)phenyl)thiazol-2-yl)amino)-2-oxoethyl)benzamide]
11 | >95% | < 0.1 µM | < 0.1 µM | > 95% | – | – | – | – | Cc1cc(-c2cccc(-c3csc(NC(=O)CNC(=O)c4ccc5c(c4)[C@@](C)(CO)CC5)n3)c2)nc(C)n1 [Compound 227, (3S)-N-[2-[[4-[3-(2,6-dimethylpyrimidin-4-yl)phenyl]thiazol-2-yl]amino]-2-oxo-ethyl]-3-(hydroxymethyl)-3-methylindane-5-carboxamide]
12 | – | – | – | – | >95% | < 0.1 µM | < 0.1 µM | > 95% | C[C@@H]1CN(c2cccc(-c3csc(NC(=O)CNC(=O)c4ccc5c(c4)C(C)(C#N)COC5)n3)n2)C[C@H](C)O1 (stereo in doubt) [Compound 420, (R)-4-cyano-N-(2-((4-(6-((cis)-2,6-dimethylmorpholino)pyridin-2-yl)thiazol-2-yl)amino)-2-oxoethyl)-4-methylisochromane-6-carboxamide]
13 | – | < 0.1 µM | 1 to 5 µM | > 95% | – | – | – | – | C[C@@H]1CN(c2cccc(-c3csc(NC(=O)CNC(=O)c4ccc5c(c4)C4(CCO5)CCO4)n3)n2)C[C@H](C)O1 (stereo partly shown) [Compound 360]
14 | – | – | – | – | >85% | 0.1 to 1 µM | > 5 µM | > 85% | C[C@@H]1CN(c2cccc(-c3csc(NC(=O)CNC(=O)c4cccc([C@H]5COC[C@H]5O)c4)n3)n2)C[C@H](C)O1 (stereo in doubt) [Compound 425, N-(2-((4-(6-((cis)-2,6-dimethylmorpholino)pyridin-2-yl)thiazol-2-yl)amino)-2-oxoethyl)-3-((trans)-4-hydroxytetrahydrofuran-3-yl)benzamide]
15 | >95% | 0.1 to 1 µM | 0.1 to 1 µM | > 80% | – | – | – | – | CN1CCOc2ccc(-c3csc(NC(=O)CNC(=O)c4ccc5c(c4)[C@](C)(CO)CC5)n3)cc21 [Compound 173, (R)-3-(hydroxymethyl)-3-methyl-N-(2-((4-(4-methyl-3,4-dihydro-2H-benzo[b][1,4]oxazin-6-yl)thiazol-2-yl)amino)-2-oxoethyl)-2,3-dihydro-1H-indene-5-carboxamide]
16 | >95% | < 0.1 µM | < 0.1 µM | > 95% | – | – | – | – | Cc1cc(-c2cccc(-c3csc(NC(=O)CNC(=O)c4cccc(S(=O)(=O)C(C)C)c4)n3)c2)cc(C)n1 [Compound 18, N-(2-((4-(3-(2,6-dimethylpyridin-4-yl)phenyl)thiazol-2-yl)amino)-2-oxoethyl)-3-(isopropylsulfonyl)benzamide]
17 | >95% | < 0.1 µM | 0.1 to 1 µM | > 90% | – | – | – | – | C[C@@H]1CN(c2cccc(-c3csc(NC(=O)CNC(=O)c4cccc([C@]5(F)C[C@H](O)C5)c4)n3)c2)C[C@H](C)O1 [Compound 150, N-(2-((4-(3-((cis)-2,6-dimethylmorpholino)phenyl)thiazol-2-yl)amino)-2-oxoethyl)-3-((1r,3r)-1-fluoro-3-hydroxycyclobutyl)benzamide]
18 | >95% | < 0.1 µM | 0.1 to 1 µM | > 90% | – | – | – | – | C[C@@H]1CN(c2cccc(-c3csc(NC(=O)CNC(=O)c4ccc(Cl)c(C(C)(C)CO)c4)n3)n2)C[C@H](C)O1 [Compound 241, 4-chloro-N-[2-[[4-[6-[(cis)-2,6-dimethylmorpholin-4-yl]-2-pyridyl]thiazol-2-yl]amino]-2-oxo-ethyl]-3-(2-hydroxy-1,1-dimethyl-ethyl)benzamide]
19 | >95% | 0.1 to 1 µM | 0.1 to 1 µM | > 80% | – | – | – | – | C[C@@H]1CN(c2cccc(-c3csc(NC(=O)CNC(=O)c4cnc5c(c4)[C@@](C)(CO)CC5)n3)c2)C[C@H](C)O1 [Compound 144, (S)-N-(2-((4-(3-((cis)-2,6-dimethylmorpholino)phenyl)thiazol-2-yl)amino)-2-oxoethyl)-5-(hydroxymethyl)-5-methyl-6,7-dihydro-5H-cyclopenta[b]pyridine-3-carboxamide]
20 | >90% | 0.1 to 1 µM | 1 to 5 µM | > 60% | – | – | – | – | Cn1ncc(-c2cccc(-c3csc(NC(=O)CNC(=O)c4ccc5c(c4)C(C)(CO)CC5)n3)n2)n1 (stereo not shown) [Compound 155, 3-(hydroxymethyl)-3-methyl-N-(2-((4-(6-(2-methyl-2H-1,2,3-triazol-4-yl)pyridin-2-yl)thiazol-2-yl)amino)-2-oxoethyl)-2,3-dihydro-1H-indene-5-carboxamide]
